Reference: ChEMBL document CHEMBL1138905, “Design, synthesis, and biological evaluation of indole derivatives as novel nociceptin/orphanin FQ (N/OFQ) receptor antagonists” (Bioorg Med Chem Lett, 2006)
pIC50: −log10 of the molar value.

Columns and labels:
[1] = biological target: T1, Nociceptin receptor (Homo sapiens, UniProt P41146); test: Displacement of [125I][Tyr14]N/OFQ from ORL1 receptor transfected in CHO cells; type: cell-based
[2] = biological target: T1, Nociceptin receptor; test: Displacement of [125I][Tyr14]N/OFQ from ORL1 receptor transfected in CHO cells at 1 uM; type: cell-based
[3] = biological target: T1, Nociceptin receptor; test: Antagonist activity against ORL1 receptor by GTPgammaS assay; type: functional

T1 sequence (P41146 whole entry): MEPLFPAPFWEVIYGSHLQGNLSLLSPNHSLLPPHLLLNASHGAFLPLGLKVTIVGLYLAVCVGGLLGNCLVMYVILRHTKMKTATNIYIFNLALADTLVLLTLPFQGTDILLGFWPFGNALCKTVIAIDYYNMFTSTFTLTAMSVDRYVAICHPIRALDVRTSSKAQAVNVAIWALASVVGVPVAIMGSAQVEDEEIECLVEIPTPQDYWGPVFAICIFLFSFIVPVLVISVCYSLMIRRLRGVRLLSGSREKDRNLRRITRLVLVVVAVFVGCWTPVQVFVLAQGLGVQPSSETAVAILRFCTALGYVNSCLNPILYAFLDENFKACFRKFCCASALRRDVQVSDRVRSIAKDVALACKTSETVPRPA

`CN(C)CCc1cccc2[nH]c(-c3nc(CCc4ccccn4)no3)cc12` was tested, and the pIC50 [1] was under 6.00 and the inhibition [2] was 11%.
`CN(C)CCc1cccc2[nH]c(-c3nc(CCc4ccc(N(C)C)cc4)no3)cc12` was tested, and the pIC50 [1] was under 6.00 and the inhibition [2] was 44%.
Work on `CN1CCN(c2[nH]ccc3nc(-c4nc(CCc5ccc(Cl)cc5)no4)cc2-3)CC1` yielded a pIC50 [3] of 6.70 and a pIC50 [1] of 7.40.
In the case of `CN(C)CCc1cccc2[nH]c(-c3ncc(CCc4ccc(Cl)cc4)o3)cc12`, the pIC50 [1] was under 6.00 and the inhibition [2] was 37%.
Compound `CN1CCC(c2cccc3[nH]c(-c4nc(CCc5ccc(Cl)cc5)no4)cc23)CC1` has a pIC50 [3] of 6.05 and a pIC50 [1] of 7.21.
`CN(C)CCc1cccc2[nH]c(-c3noc(CCc4ccc(Cl)cc4)n3)cc12` showed a pIC50 [1] of 6.22.
`CCCCc1noc(-c2cc3c(CCN(C)C)cccc3[nH]2)n1` showed a pIC50 [1] of under 6.00 and an inhibition [2] of 42%.
`CN1CCN(c2cccc3[nH]c(-c4nc(CCc5ccc(Cl)cc5)no4)cc23)CC1` gave a pIC50 [1] of 6.92.
For `CN(C)CCc1cccc2[nH]c(-c3nc(CCc4ccc(C(F)(F)F)cc4)no3)cc12`, the pIC50 [3] was 6.38 and the pIC50 [1] was 7.31.
Work on `CN(C)CCc1cccc2[nH]c(-c3nc(Cc4ccc(Cl)cc4)no3)cc12` yielded a pIC50 [1] of 6.35.
Compound `CN(C)CCc1cccc2[nH]c(-c3nc(CCC4CCCC4)no3)cc12` has a pIC50 [1] of 6.24.
With `CN(C)CCc1cccc2[nH]c(C(=O)NCCc3ccc(Cl)cc3)cc12` the pIC50 [1] was under 6.00 and the inhibition [2] was 18%.
`CN(C)CCc1cccc2[nH]c(-c3nc(CCCc4ccc(Cl)cc4)no3)cc12` was tested, and the pIC50 [1] was under 6.00 and the inhibition [2] was 49%.
For `CN(C)CCc1cccc2[nH]c(-c3nc(CCC4CC5CCC4C5)no3)cc12` (centres undefined), the pIC50 [1] was 6.36.
`CN(C)CCc1cccc2[nH]c(-c3nc(CCc4ccc(Cl)cc4)no3)cc12` gave a pIC50 [3] of 6.20 and a pIC50 [1] of 7.02.
In the case of `CN(C)CCc1cccc2[nH]c(-c3nnc(CCc4ccc(Cl)cc4)o3)cc12`, the pIC50 [1] was under 6.00 and the inhibition [2] was 39%.
Compound `CN1CCN(c2cc[nH]c3nc(-c4nc(CCc5ccc(Cl)cc5)no4)cc2-3)CC1` has a pIC50 [1] of under 6.00 and an inhibition [2] of 27%.
For `CN(C)CCc1cccc2cc(-c3nc(CCc4ccc(Cl)cc4)no3)[nH]c12`, the pIC50 [1] was under 6.00 and the inhibition [2] was 18%.
Compound `CN(C)CCc1cccc2[nH]c(-c3nc(CCC4CC4)no3)cc12` has a pIC50 [1] of under 6.00 and an inhibition [2] of 29%.
`CN(C)CCc1cccc2[nH]c(-c3nc(CCC4CCCCC4)no3)cc12` showed a pIC50 [1] of 6.85.
Compound `CN(C)CCCc1cccc2[nH]c(-c3nc(CCc4ccc(Cl)cc4)no3)cc12` has a pIC50 [1] of 6.68.
In the case of `Clc1ccc(CCc2noc(-c3cc4c(CCN5CCOCC5)cccc4[nH]3)n2)cc1`, the pIC50 [1] was under 6.00 and the inhibition [2] was 15%.
`CN(C)CCc1cccc2[nH]c(-c3nc(COc4ccc(Cl)cc4)no3)cc12` showed a pIC50 [1] of 6.39.
In the case of `CN(C)CCc1cccc2[nH]c(-c3nnn(CCc4ccc(Cl)cc4)n3)cc12`, the pIC50 [1] was under 6.00 and the inhibition [2] was 46%.
In the case of `CCN(C)CCc1cccc2[nH]c(-c3nc(CCc4ccc(Cl)cc4)no3)cc12`, the pIC50 [3] was 6.65 and the pIC50 [1] was 7.24.
`Cc1ccc(CCc2noc(-c3cc4c(CCN(C)C)cccc4[nH]3)n2)cc1` was tested, and the pIC50 [1] was 6.64.
With `Clc1ccc(CCc2noc(-c3cc4c(CCN5CCCC5)cccc4[nH]3)n2)cc1` the pIC50 [1] was 6.25.
With `CN(C)CCc1cccc2[nH]c(-c3nc(CCc4ccncc4)no3)cc12` the pIC50 [1] was under 6.00 and the inhibition [2] was 12%.
With `COc1ccc(CCc2noc(-c3cc4c(CCN(C)C)cccc4[nH]3)n2)cc1` the pIC50 [1] was 6.25.
Compound `CN(C)CCc1cccc2[nH]c(-c3nc(CCCN4CCCC4)no3)cc12` has a pIC50 [1] of under 6.00 and an inhibition [2] of 0%.
For `CN(C)CCc1cccc2[nH]c(C(=O)NCCCc3ccc(Cl)cc3)cc12`, the pIC50 [1] was under 6.00 and the inhibition [2] was 41%.
Compound `CN(C)CCc1cccc2[nH]c(-c3nc(CCCC4CCCCC4)no3)cc12` has a pIC50 [3] of 6.53 and a pIC50 [1] of 7.15.
`COC(C)(C)CCc1noc(-c2cc3c(CCN(C)C)cccc3[nH]2)n1` was tested, and the pIC50 [1] was under 6.00 and the inhibition [2] was 4%.
`CN(C)CCc1cccc2[nH]c(-c3nc(CC4CCCCC4)no3)cc12` was tested, and the pIC50 [1] was 6.36.
In the case of `CN(C)CCc1cccc2[nH]c(-c3nc(CCc4ccc(F)cc4)no3)cc12`, the pIC50 [1] was 6.35.
For `CN1CCCC1c1ccc2[nH]c(-c3nc(CCc4ccc(Cl)cc4)no3)cc2c1C1CCCN1C` (centres undefined), the pIC50 [1] was under 6.00 and the inhibition [2] was 31%.
With `CN(C)CCc1cccc2[nH]c(-c3nc(CCc4ccccc4)no3)cc12` the pIC50 [1] was under 6.00 and the inhibition [2] was 46%.
For `CC(C)CCc1noc(-c2cc3c(CCN(C)C)cccc3[nH]2)n1`, the pIC50 [1] was under 6.00 and the inhibition [2] was 29%.
`CN(C)CCc1cccc2[nH]c(-c3nc(CCC(C)(C)C)no3)cc12` was tested, and the pIC50 [1] was under 6.00 and the inhibition [2] was 20%.
Compound `CN(C)CCOCCc1cccc2[nH]c(-c3nc(CCc4ccc(Cl)cc4)no3)cc12` has a pIC50 [3] of 6.35 and a pIC50 [1] of 7.01.
For `CCCc1noc(-c2cc3c(CCN(C)C)cccc3[nH]2)n1`, the pIC50 [1] was under 6.00 and the inhibition [2] was 14%.
For `CN(C)CCc1cccc2[nH]c(-c3nc(CCC4CCOCC4)no3)cc12`, the pIC50 [1] was under 6.00 and the inhibition [2] was 11%.
`CN(C)CCc1cccc2[nH]c(-c3nc(CCc4cccnc4)no3)cc12` was tested, and the pIC50 [1] was under 6.00 and the inhibition [2] was 1.7%.
`CN(C)CCc1ccc2cc(-c3nc(CCc4ccc(Cl)cc4)no3)[nH]c2c1` gave a pIC50 [1] of under 6.00 and an inhibition [2] of 22%.
Compound `CN(C)Cc1cccc2[nH]c(-c3nc(CCc4ccc(Cl)cc4)no3)cc12` has a pIC50 [3] of 6.63 and a pIC50 [1] of 7.21.
`CN(C)CCc1ccc2[nH]c(-c3nc(CCc4ccc(Cl)cc4)no3)cc2c1` gave a pIC50 [1] of under 6.00 and an inhibition [2] of 3%.
